Assay results from ChEMBL document CHEMBL5143628, “Enteroviral replication inhibition by N-Alkyl triazolopyrimidinone derivatives through a non-capsid binding mode” (Bioorg Med Chem Lett, 2022).

Columns and labels:
rhinovirus A2 = assay: Antiviral activity against Human rhinovirus 2 infected in human H1-HeLa cells assessed as reduction in virus induced cytopathic effect incubated for 3 days by MTT assay; assay type: functional, organism-based; settings: Rhinovirus A, 72 h
Coxsackievirus B1 = assay: Antiviral activity against Human coxsackievirus B1 infected in human H1-HeLa cells assessed as reduction in virus induced cytopathic effect incubated for 2 days by MTT assay; assay type: functional, organism-based; settings: Enterovirus B, 48 h
[1] = Inhibition of Enterovirus A71 replicon RNA transfected in human H1-HeLa cells assessed as reduction in replication measured after 8 hrs by One-Glo luciferase assay; assay type: cell-based; settings: Enterovirus A
CYP2C9 = CYP2C9 (Homo sapiens, UniProt P11712); assay: Inhibition of human CYP2C9 at 10 uM incubated for 20 mins in presence of NADPH regenerating system by luminescence assay relative to control; assay type: ADME
CYP2C9, sequence (P11712 whole entry): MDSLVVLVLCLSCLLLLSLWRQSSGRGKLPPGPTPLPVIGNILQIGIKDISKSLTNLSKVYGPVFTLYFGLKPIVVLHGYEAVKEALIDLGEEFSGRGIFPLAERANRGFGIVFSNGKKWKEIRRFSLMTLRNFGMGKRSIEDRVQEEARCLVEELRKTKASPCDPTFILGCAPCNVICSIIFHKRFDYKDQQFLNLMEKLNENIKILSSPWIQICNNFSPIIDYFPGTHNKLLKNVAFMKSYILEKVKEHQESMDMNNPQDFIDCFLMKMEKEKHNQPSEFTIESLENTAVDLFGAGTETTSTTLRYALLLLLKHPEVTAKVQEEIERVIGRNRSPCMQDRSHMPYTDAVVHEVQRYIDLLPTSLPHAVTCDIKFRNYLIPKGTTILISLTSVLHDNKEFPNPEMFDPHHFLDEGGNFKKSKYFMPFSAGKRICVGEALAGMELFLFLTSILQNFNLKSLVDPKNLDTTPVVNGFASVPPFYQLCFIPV

[2] = Cytotoxicity against human H1-HeLa cells assessed as reduction in cell viability by MTT assay; assay type: toxicity, cell-based; settings: H1-HeLa cells
[3] = Selectivity index, ratio of CC50 for cytotoxicity against human H1-HeLa cells to EC50 for antiviral activity against Human rhinovirus A71 infected in human H1-HeLa cells; assay type: toxicity, cell-based; settings: H1-HeLa cells, read-out: Ratio CC50/EC50
[4] = Selectivity index, ratio of CC50 for cytotoxicity against human H1-HeLa cells to EC50 for antiviral activity against Human rhinovirus A21 infected in human H1-HeLa cells; assay type: toxicity, cell-based
rhinovirus A1B = assay: Antiviral activity against Rhinovirus A1B infected in human H1-HeLa cells assessed as reduction in virus induced cytopathic effect incubated for 3 days by MTT assay; assay type: functional, organism-based; settings: Rhinovirus A, 72 h
[5] = Metabolic stability in pooled rat liver microsomes at 1 uM incubated for 30 mins in presence of NADPH regenerating system by LC/MS/MS analysis; assay type: ADME, Microsome; settings: 0.5 h
CYP3A4 = CYP3A4 (Homo sapiens, UniProt P08684); assay: Inhibition of human CYP3A4 at 10 uM incubated for 20 mins in presence of NADPH regenerating system by luminescence assay relative to control; assay type: ADME
CYP3A4, sequence (P08684 whole entry): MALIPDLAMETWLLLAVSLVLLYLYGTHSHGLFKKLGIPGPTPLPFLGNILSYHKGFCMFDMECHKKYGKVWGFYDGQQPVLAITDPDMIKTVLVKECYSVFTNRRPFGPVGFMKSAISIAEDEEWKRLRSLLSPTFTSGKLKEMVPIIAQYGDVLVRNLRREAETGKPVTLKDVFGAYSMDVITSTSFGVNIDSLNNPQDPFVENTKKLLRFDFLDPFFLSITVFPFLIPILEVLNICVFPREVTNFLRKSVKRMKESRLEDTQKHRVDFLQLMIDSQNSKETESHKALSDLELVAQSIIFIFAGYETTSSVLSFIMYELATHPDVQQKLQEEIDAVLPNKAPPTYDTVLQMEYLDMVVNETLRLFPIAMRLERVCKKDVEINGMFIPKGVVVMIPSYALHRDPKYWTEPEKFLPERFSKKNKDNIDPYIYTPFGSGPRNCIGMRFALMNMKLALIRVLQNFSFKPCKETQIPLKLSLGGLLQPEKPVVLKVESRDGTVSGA

Rhinovirus B [6] = assay: Antiviral activity against Rhinovirus B27 infected in human H1-HeLa cells assessed as reduction in virus induced cytopathic effect incubated for 3 days by MTT assay; assay type: functional, organism-based; settings: Rhinovirus B, 27, H1-HeLa, 72 h
rhinovirus A21 = assay: Antiviral activity against Human rhinovirus A21 infected in human H1-HeLa cells assessed as reduction in virus induced cytopathic effect incubated for 3 days by MTT assay; assay type: functional, organism-based; settings: h1-hela
rhinovirus B14 = assay: Antiviral activity against Human rhinovirus B14 infected in human H1-HeLa cells assessed as reduction in virus induced cytopathic effect incubated for 3 days by MTT assay; assay type: functional, organism-based; settings: h1-hela
[7] = Antiviral activity against Human rhinovirus 42 infected in human H1-HeLa cells assessed as reduction in virus induced cytopathic effect incubated for 3 days by MTT assay; assay type: functional, cell-based; settings: Rhinovirus B, 72 h
rhinovirus B86 = assay: Antiviral activity against Human rhinovirus 86 infected in human H1-HeLa cells assessed as reduction in virus induced cytopathic effect incubated for 3 days by MTT assay; assay type: functional, organism-based; settings: Rhinovirus B, 72 h
[8] = Half life in Sprague-Dawley rat at 10 mg/kg, po by LC/MS/MS analysis; assay type: ADME, organism-based; settings: in vivo
Rhinovirus A [9] = assay: Antiviral activity against Rhinovirus A33 infected in human H1-HeLa cells assessed as reduction in virus induced cytopathic effect incubated for 3 days by MTT assay; assay type: functional, cell-based; settings: Rhinovirus A, 33, H1-HeLa, 72 h
Poliovirus 3 = assay: Antiviral activity against Human poliovirus 3 infected in human H1-HeLa cells assessed as reduction in virus induced cytopathic effect incubated for 2 days by MTT assay; assay type: functional, organism-based; settings: Enterovirus C, 48 h
[10] = Tmax in Sprague-Dawley rat at 10 mg/kg, po by LC/MS/MS analysis; assay type: ADME, organism-based; settings: in vivo
[11] = AUCinfinity in Sprague-Dawley rat at 10 mg/kg, po by LC/MS/MS analysis; assay type: ADME, organism-based; set-up: time infinity, dose 10 mg/kg, route po; settings: in vivo
Rhinovirus B [12] = assay: Antiviral activity against Rhinovirus B91 infected in human H1-HeLa cells assessed as reduction in virus induced cytopathic effect incubated for 3 days by MTT assay; assay type: functional, organism-based; settings: Rhinovirus B, 91, H1-HeLa, 72 h
[13] = Cytotoxicity against human H1-HeLa cells transfected with Enterovirus A71 replicon RNAs assessed as reduction in cell viability by CellTiter-Glo luminescent cell viability assay; assay type: toxicity, cell-based
[14] = Cmax in Sprague-Dawley rat at 10 mg/kg, po by LC/MS/MS analysis; assay type: ADME, organism-based; set-up: dose 10 mg/kg, route po; settings: in vivo
CYP2C19 = CYP2C19 (Homo sapiens, UniProt P33261); assay: Inhibition of human CYP2C19 at 10 uM incubated for 20 mins in presence of NADPH regenerating system by luminescence assay relative to control; assay type: ADME
CYP2C19, sequence (P33261 whole entry): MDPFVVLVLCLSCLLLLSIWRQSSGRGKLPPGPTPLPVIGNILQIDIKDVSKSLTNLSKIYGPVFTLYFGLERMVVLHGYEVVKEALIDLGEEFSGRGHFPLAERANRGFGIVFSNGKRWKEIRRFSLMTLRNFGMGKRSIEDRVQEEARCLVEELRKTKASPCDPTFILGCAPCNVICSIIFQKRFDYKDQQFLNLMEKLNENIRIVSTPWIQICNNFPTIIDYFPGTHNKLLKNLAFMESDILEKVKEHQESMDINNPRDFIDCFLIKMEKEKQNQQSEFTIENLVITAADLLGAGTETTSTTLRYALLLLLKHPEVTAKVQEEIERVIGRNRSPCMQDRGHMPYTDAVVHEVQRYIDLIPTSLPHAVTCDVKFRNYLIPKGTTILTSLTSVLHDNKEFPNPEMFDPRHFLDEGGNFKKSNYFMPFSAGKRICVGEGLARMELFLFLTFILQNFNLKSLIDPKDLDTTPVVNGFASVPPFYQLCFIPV

[15] = Antiviral activity against Human rhinovirus A71 infected in human H1-HeLa cells assessed as reduction in virus induced cytopathic effect incubated for 3 days by MTT assay; assay type: functional, cell-based; settings: Rhinovirus A, H1-HeLa, 72 h
[16] = Selectivity index, ratio of CC50 for cytotoxicity against human H1-HeLa cells to EC50 for antiviral activity against Human rhinovirus B14 infected in human H1-HeLa cells; assay type: toxicity, cell-based
[17] = AUClast in Sprague-Dawley rat at 10 mg/kg, po by LC/MS/MS analysis; assay type: ADME, organism-based; set-up: time 0 - last, dose 10 mg/kg, route po; settings: in vivo
Rhinovirus A [18] = assay: Antiviral activity against Rhinovirus A98 infected in human H1-HeLa cells assessed as reduction in virus induced cytopathic effect incubated for 3 days by MTT assay; assay type: functional, cell-based; settings: Rhinovirus A, 98, H1-HeLa, 72 h
[19] = Metabolic stability in pooled human liver microsomes at 1 uM incubated for 30 mins in presence of NADPH regenerating system by LC/MS/MS analysis; assay type: ADME, Microsome; settings: 0.5 h
CYP1A2 = target: T1, CYP1A2 (Homo sapiens, UniProt P05177); assay: Inhibition of human CYP1A2 at 10 uM incubated for 20 mins in presence of NADPH regenerating system by luminescence assay relative to control; assay type: ADME
T1 sequence (P05177 whole entry): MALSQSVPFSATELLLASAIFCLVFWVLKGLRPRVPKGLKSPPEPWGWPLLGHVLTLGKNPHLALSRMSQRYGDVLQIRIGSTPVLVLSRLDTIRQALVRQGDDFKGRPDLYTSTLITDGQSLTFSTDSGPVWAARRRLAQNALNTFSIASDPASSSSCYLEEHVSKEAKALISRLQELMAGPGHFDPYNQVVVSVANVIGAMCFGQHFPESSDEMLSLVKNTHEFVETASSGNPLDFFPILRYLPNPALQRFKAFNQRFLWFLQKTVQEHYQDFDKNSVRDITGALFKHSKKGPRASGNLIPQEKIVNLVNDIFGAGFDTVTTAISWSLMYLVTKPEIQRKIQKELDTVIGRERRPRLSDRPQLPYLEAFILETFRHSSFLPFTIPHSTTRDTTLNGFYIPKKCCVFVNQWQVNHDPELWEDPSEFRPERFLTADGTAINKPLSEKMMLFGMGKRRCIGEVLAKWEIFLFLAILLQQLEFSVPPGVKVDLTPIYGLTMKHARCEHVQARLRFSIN

CYP2D6 = CYP2D6 (Homo sapiens, UniProt P10635); assay: Inhibition of human CYP2D6 at 10 uM incubated for 20 mins in presence of NADPH regenerating system by luminescence assay relative to control; assay type: ADME
CYP2D6, sequence (P10635 whole entry): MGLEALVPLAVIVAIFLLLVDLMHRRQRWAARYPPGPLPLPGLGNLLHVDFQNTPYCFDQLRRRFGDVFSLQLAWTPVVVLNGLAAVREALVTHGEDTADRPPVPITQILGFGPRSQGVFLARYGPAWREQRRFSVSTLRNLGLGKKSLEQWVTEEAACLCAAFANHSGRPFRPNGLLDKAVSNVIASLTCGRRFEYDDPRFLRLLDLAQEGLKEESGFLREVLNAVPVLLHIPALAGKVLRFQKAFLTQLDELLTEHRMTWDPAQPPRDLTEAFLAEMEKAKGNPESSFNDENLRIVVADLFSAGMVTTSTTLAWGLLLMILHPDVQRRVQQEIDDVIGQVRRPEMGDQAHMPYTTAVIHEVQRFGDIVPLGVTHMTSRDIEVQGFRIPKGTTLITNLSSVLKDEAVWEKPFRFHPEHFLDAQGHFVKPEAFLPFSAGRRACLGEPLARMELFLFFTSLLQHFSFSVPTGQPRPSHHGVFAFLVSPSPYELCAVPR

rhinovirus A16 = assay: Antiviral activity against Human rhinovirus 16 infected in human H1-HeLa cells assessed as reduction in virus induced cytopathic effect incubated for 3 days by MTT assay; assay type: functional, organism-based; settings: Rhinovirus A, 72 h

CCCn1c(=O)c2c3c(sc2n2cnnc12)CC(C(C)(C)C)CC3 (stereo in doubt)
EC50 (rhinovirus A2): 1900 nM | EC50 (Coxsackievirus B1): 19800 nM | IC50 [1]: 1700 nM | inhibition at 20 min, 10 µM (CYP2C9): 11.9% | CC50 [2]: 77100 nM | selectivity ratio [3]: 33.2 | Ratio CC50/EC50 [4]: 42.2 | EC50 (rhinovirus A1B): 1900 nM | Stability [5]: Stable | inhibition at 20 min, 10 µM (CYP3A4): 3.24% | EC50 (Rhinovirus B [6]): 1600 nM | EC50 (rhinovirus A21): 2000 nM | EC50 (rhinovirus B14): 1800 nM | EC50 [7]: 1600 nM | EC50 (rhinovirus B86): 1500 nM | half-life [8]: 8.89 h | EC50 (Rhinovirus A [9]): 1500 nM | EC50 (Poliovirus 3): 1670 nM | Tmax [10]: 3.5 h | AUC(0-inf) [11]: 200 ng·h/mL | EC50 (Rhinovirus B [12]): 1700 nM | CC50 [13]: > 30000 nM | Cmax [14]: 20 ng/mL | inhibition at 20 min, 10 µM (CYP2C19): 7.19% | EC50 [15]: 1600 nM | Ratio CC50/EC50 [16]: 37.2 | AUC(0-t) [17]: 180 ng·h/mL | EC50 (Rhinovirus A [18]): 1900 nM | Stability [19]: Stable | inhibition at 20 min, 10 µM (CYP1A2): 7.46% | inhibition at 20 min, 10 µM (CYP2D6): 1.26% | EC50 (rhinovirus A16): 1900 nM
